In patent publication US10517926B2, “Oligopeptide having proinflammatory cytokine secretion-inhibiting activity” (Osaka University, priority 2015, dated 2019):

Columns and labels:
[1] = system: MG6 cells; assay: Proinflammatory cytokine secretion inhibition, LPS-stimulated microglial cells (ELISA); format: cell-based, mouse; conditions: for proinflammatory cytokine secretion-inhibiting activity on the MG6 cells: same test as Example 2
Experimental: MG6 cells (mouse-derived microglial cell line) were cultured in a DMEM medium (+4% FBS) containing MHP1 or MHP2 (final concentration: 50 or 100 μg/ml), and LPS (final concentration: 2 ng/ml) for 24 hours by a standard method. After culture, the concentrations of IL-6 and TNFα in the medium were measured by the ELISA method. In the Examples of the present application, the ELISA method was performed using a kit (Quantikine ELISA Mouse TNF-α or Quantikine ELISA Mouse IL-6, produced by R&D Systems). The results are shown in FIG. 1 (IL-6) and FIG. 2 (TNFα).
The proinflammatory cytokine secretion-inhibiting effect was examined in the same as in Example 2, except that the final concentration of MHP1 was set to 100 μg/ml, and that RANKL full-length protein was used at a final concentration of 10 ng/ml or 100 ng/ml as the comparison target.

[2] = system: LPS-administered mice (Balb/c); assay: Septicemia model, LPS intraperitoneal, survival; format: in vivo, mouse; conditions: LPS 10 mg/kg + MHP2 5 mg/kg or 10 mg/kg i.p.; LPS only: 2 of 3 died; FIG. 17
Experimental: To wild-type mice (Balb/c, 5-week-old female mice), LPS (10 mg/kg) was intraperitoneally administered, or LPS (10 mg/kg) and MHP-2 (5 mg/kg or 10 mg/kg) were intraperitoneally administered. After administration, the survival rate of the mice was measured.

[3] = system: THP1 cells; assay: Proinflammatory cytokine secretion inhibition, human macrophage cells; format: cell-based; conditions: MHP6 10-100 μg/ml or MHP1 100 μg/ml, LPS 2 ng/ml, 24 hours, FIG. 14
Experimental: THP1 cells (human-derived macrophage cell line) were cultured in a DMEM medium (+4% FBS) containing MHP6 (human-derived; final concentration: 10, 30, 50, or 100 μg/ml) or MHP1 (mouse-derived; final concentration: 100 μg/ml), and LPS (final concentration: 2 ng/ml) for 24 hours by a standard method. After culture, the concentration of IL-6 in the medium was measured by the ELISA method.

[4] = system: osteoclast precursor cells; assay: Osteoclast differentiation, Osteoclast Culture Kit (TRAP and nuclear staining); format: cell-based; conditions: with M-CSF 50 ng/ml; MHP1 30, 50 or 100 μg/ml or RANKL protein 50 ng/ml; FIG. 13
Experimental: Osteoclast Culture Kit V-2 (OSC33, produced by Cosmo Bio Co., Ltd.) was used. According to the manual of the kit, culture of osteoclast precursor cells was started in the presence of M-CSF (final concentration: 50 ng/ml) in the A and B groups, and in the presence of M-CSF (final concentration: 50 ng/ml) and MHP1 (final concentration: 30, 50, or 100 μg/ml) in the C and D groups. Thereafter, 24 hours to 7 days after the start of culture, the A group was cultured in the presence of M-CSF (final concentration: 50 ng/ml), the B group was cultured in the presence of M-CSF (final concentration: 50 ng/ml) and RANKL protein (final concentration: 50 ng/ml), the C group was cultured in the presence of M-CSF (final concentration: 50 ng/ml) and MHP1 (final concentration: 30, 50, or 100 μg/ml), and the D group was cultured in the presence of M-CSF (final concentration: 50 ng/ml), RANKL protein (final concentration: 50 ng/ml), and MHP1 (final concentration: 30, 50, or 100 μg/ml). After culture, the cells were subjected to TRAP staining and nuclear staining according to a standard method.

## DYLQLMVYVVKTSIKIPSSHNLMKGGSTKN (listed as Mus musculus) [MHP2]
[1]; MG6 cells, peptide 50 or 100 μg/ml, LPS 2 ng/ml, 24 hours, FIG. 1
  increase in the amount of IL-6 secretion by LPS: suppressed
[1]; MG6 cells, peptide 50 or 100 μg/ml, LPS 2 ng/ml, 24 hours, FIG. 2
  increase in the amount of TNFα secretion by LPS: suppressed
[2]
  mice that died: no mouse

## HETSGSVPADYLQLMVYVVKTSIKIPSS (listed as Mus musculus) [MHP3]
[1]
  proinflammatory cytokine secretion-inhibiting activity on the MG6 cells: did not show proinflammatory cytokine secretion-inhibiting activity

## LMVYVTKTSIKIPSSHTLMKGGSTKYWSGN (listed as Homo sapiens) [MHP6]
[3]
  proinflammatory cytokine (IL-6) secretion-inhibiting activity on human-derived macrophage cells: exhibited proinflammatory cytokine secretion-inhibiting activity

## LMVYVVKTSIK (listed as Mus musculus) [MHP17]
[1]
  proinflammatory cytokine secretion-inhibiting activity on the MG6 cells: showed proinflammatory cytokine secretion-inhibiting activity

## LMVYVVKTSIKIPSS (listed as Mus musculus) [MHP4]
[1]
  proinflammatory cytokine secretion-inhibiting activity on the MG6 cells: showed proinflammatory cytokine secretion-inhibiting activity

## LMVYVVKTSIKIPSSHNLMKGG (listed as Mus musculus) [MHP5]
[1]
  proinflammatory cytokine secretion-inhibiting activity on the MG6 cells: showed proinflammatory cytokine secretion-inhibiting activity

## LMVYVVKTSIKIPSSHNLMKGGS (listed as Mus musculus) [MHP12]
[1]
  proinflammatory cytokine secretion-inhibiting activity on the MG6 cells: showed proinflammatory cytokine secretion-inhibiting activity

## LMVYVVKTSIKIPSSHNLMKGGSTKN (listed as Mus musculus) [MHP13]
[1]
  proinflammatory cytokine secretion-inhibiting activity on the MG6 cells: showed proinflammatory cytokine secretion-inhibiting activity

## RANKL: RANKL protein (Recombinant Murin sRANKL Ligand (Cat No. 315-11): produced by Peprotech) (LMVYVVKTSIKIPSSHNLMKGGSTKNWSGN) [reference compound]
[4]
  differentiation of osteoclasts by the substance itself: promoted
